Measured values from patent publication US20150376172A1, “FLUORO-[1,3]OXAZINES AS BACE1 INHIBITORS” (HOFFMANN-LA ROCHE INC., priority 2013, published 2015).

molecular target: T1, BACE1 (Homo sapiens, UniProt P56817); test: Cellular Aβ-lowering assay (Abeta 40 AlphaLISA); assay type: cell-based; conditions: HEK293 APP cells; 18-20 hrs incubation; Aβ 40 in culture supernatants by AlphaLISA; read-out: BACE1 cell act. Aβ40 IC50
T1 construct: endogenous in cells; host or cells: HEK293 APP cells
T1 sequence (P56817 46-501): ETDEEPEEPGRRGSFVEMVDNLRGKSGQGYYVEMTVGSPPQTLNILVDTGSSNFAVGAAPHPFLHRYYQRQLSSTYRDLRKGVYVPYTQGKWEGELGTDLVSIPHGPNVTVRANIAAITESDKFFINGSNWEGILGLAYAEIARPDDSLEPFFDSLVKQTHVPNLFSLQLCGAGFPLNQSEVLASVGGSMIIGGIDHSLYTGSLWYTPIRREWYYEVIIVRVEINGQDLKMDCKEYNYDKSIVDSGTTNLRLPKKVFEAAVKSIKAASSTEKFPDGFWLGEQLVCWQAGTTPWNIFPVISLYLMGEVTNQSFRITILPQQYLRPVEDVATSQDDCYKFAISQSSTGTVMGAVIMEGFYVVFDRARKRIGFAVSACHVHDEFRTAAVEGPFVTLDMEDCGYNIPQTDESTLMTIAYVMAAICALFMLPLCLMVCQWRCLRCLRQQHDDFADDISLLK

IC50 [nM]	Compound
180	Cc1cc(F)c([C@]2(C)C[C@@H](C(F)(F)F)OC(N)=N2)cc1C#Cc1nn(C(F)F)cc1Cl [Example 71, (4S,6S)-4-(5-((4-Chloro-1-(difluoromethyl)-1H-pyrazol-3-yl)ethynyl)-2-fluoro-4-methylphenyl)-4-methyl-6-(trifluoromethyl)-5,6-dihydro-4H-1,3-oxazin-2-amine]
2020	C[C@@]1(c2cc(CCc3ccc(C#N)cn3)ccc2F)C[C@@H](C(F)(F)F)OC(N)=N1 [Example 44, 6-(3-((4S,6S)-2-Amino-4-methyl-6-(trifluoromethyl)-5,6-dihydro-4H-1,3-oxazin-4-yl)-4-fluorophenethyl)nicotinonitrile]
1170	C[C@@]1(c2cc(C#Cc3cncc(Cl)c3)ccc2F)C[C@@H](C(F)(F)F)OC(N)=N1 [Example 55, (4S,6S)-4-(5-((5-chloropyridin-3-yl)ethynyl)-2-fluorophenyl)-4-methyl-6-(trifluoromethyl)-5,6-dihydro-4H-1,3-oxazin-2-amine]
1280	COc1cnc(C#Cc2ccc(F)c([C@]3(C)C[C@@H](C(F)(F)F)OC(N)=N3)c2)cn1 [Example 25, (4S,6S)-4-(2-Fluoro-5-((5-methoxypyrazin-2-yl)ethynyl)phenyl)-4-methyl-6-(trifluoromethyl)-5,6-dihydro-4H-1,3-oxazin-2-amine]
